Test results published in US6524527B2 (Natural Corporation, priority 1998, dated 2003).

Experiments:
Type in all cases: physicochemical
[1] = Oxidation of CLA methyl ester in open test tube, GLC composition; details: for relative content, Day 0: CLA methyl ester sample before oxidation; for relative content, Day 115: open test tube, 115 days, room temperature, free access to air
Protocol: This example describes the oxidation of CLA exposed to open air. A small sample of methyl ester was prepared and stored in an open test tube for 115 days at room temperature with free access to air. […] A chromatogram of the same sample was also run on a polar column. The results indicated the presence of a large number of short chain polar components (i.e., breakdown products).

[2] = Oil stability index (OSI) of CLA triacylglyceride with added antioxidants; details: antioxidant added to CLA triacylglyceride, 0-0.1 %
Protocol: In some embodiments, oxidation of CLA is prevented by the addition of metal oxidant chelators or peroxide scavengers to the finished product. In some embodiments, the amount of oxidation is measured by the oil stability index (OSI). The OSI (See e.g., AOCS official method Cd 12b-92) is a measurement of an oil's resistance to oxidation. It is defined mathematically as the time of maximum change of the rate of oxidation. This rate can be determined mathematically. Experimentally, the OSI is calculated by measuring the change in conductivity of deionized water is which volatile organic acids (oxidation products) are dissolved. When performing OSI measurements, it is important to avoid contamination by trace amounts of metals, which can accelerate the oxidation process. This is generally accomplished by careful washing of all glassware used with a cleaning solution lacking chromate or surfactants. Water must be deionized and all solvents must be of a highly purified grade. […]
The oxygen stability index (OSI) was measured using a method known in the art (AOCS official method Cd 12b-92 using an OSI apparatus from Omnion Instruments). […] The conductivity of the water is continually monitored over time. The OSI (the point of maximum change of the rate of oxidation) is determined mathematically. […]

[3] = Peroxide value (PV), colorimetric ferric thiocyanate method; details: after storage in open glass
Excerpt: The present invention is not limited to any one mechanism. Indeed, an understanding of the mechanism of the invention is not necessary to produce the composition or perform the methods of the present invention.

| relative content, Day 0 [1] | relative content, Day 115 [1] | increase of the OSI value by addition of antioxidant [2] | peroxide values (PV) [3] | Structure (SMILES) |
| --- | --- | --- | --- | --- |
| 0.11 | 0 |  |  | CCCCCC/C=C\C=C/CCCCCCCC(=O)O [CLA, c9, c11] |
| 4.14 | 3.19 |  |  | CCCCCCCC/C=C\CCCCCCCC(=O)O [C18:1, c9, oleic acid] |
| 1.36 | 1027 |  |  | CCCCCCCCCCCCCCCC(=O)O [C 16:0, palmitic acid] |
| 7.63 | 0 |  |  | CCCCC/C=C\C=C\CCCCCCCCC(=O)O [CLA, t10, c12, t10,c12-octadecadienoic acid] |
| 0.13 | 0.10 |  |  | CCCCCC/C=C\CCCCCCCCCC(=O)O [C18:1, c11] |
| 7.68 | 0 |  |  | CCCCCC/C=C/C=C\CCCCCCCC(=O)O [CLA, c9, t11, c9,t11-octadecadienoic] |
| 0.06 | 0.03 |  |  | CCCCC/C=C\C/C=C\CCCCCCCC(=O)O [C18:2, c9, c12, 9,12-linoleic acid] |
|  |  | did not significantly increase |  | Cc1c(C)c2c(c(C)c1O)CC[C@@](C)(CCC[C@H](C)CCC[C@H](C)CCCC(C)C)O2 [alpha-tocopherol] |
| 0 | 0.33 |  |  | CCCCCCCC/C=C/CCCCCCCC(=O)O [C18:1, t9] |
| 0.09 | 0 |  |  | CCCCC/C=C\C=C/CCCCCCCCC(=O)O [CLA, c10, c12, c10,c12 octadecadienoic acid] |
|  |  |  | 370 | CCCCC/C=C\C/C=C\CCCCCCCC(=O)O [linoleic acid] |
